Experimental data as given in the NIST ThermoML archive (doi:10.1021/je060271a).

Settings: 303.15 K, Liquid, Vibrating tube method

CCCCC(=O)OCC(COC(=O)CCCC)(COC(=O)CCCC)COC(=O)CCCC [pentaerythritol tetrapentanoate]
Settings	mass density [kg/m3]
1387.7 kPa	1011.7
1391.5 kPa	1011.7
1395 kPa	1011.6
1398.3 kPa	1011.8
1401.8 kPa	1011.7
1405.8 kPa	1011.7
1409.2 kPa	1011.8
1413.1 kPa	1011.7
1416.4 kPa	1011.8
1419.7 kPa	1011.8
1423.1 kPa	1011.7
1427 kPa	1011.8
1430.8 kPa	1011.8
1434.2 kPa	1011.9
1437.9 kPa	1011.6
1441.9 kPa	1011.8
1445.5 kPa	1011.7
1449 kPa	1011.8
1453.3 kPa	1011.8
1456.6 kPa	1011.8
1460.5 kPa	1011.7
1464.6 kPa	1011.9
1467.9 kPa	1011.8
1471.8 kPa	1011.8
1475.9 kPa	1011.8
1479.9 kPa	1011.8
1483.5 kPa	1011.8
1487 kPa	1011.7
1491.7 kPa	1011.8
1495.5 kPa	1011.9
1499.2 kPa	1011.8
1503.7 kPa	1011.9
1507.5 kPa	1011.7
1511.2 kPa	1011.8
1515 kPa	1011.7
1519.8 kPa	1011.7
1523.7 kPa	1011.8
1527.3 kPa	1011.8
1532.2 kPa	1011.8
1536 kPa	1011.7
1540 kPa	1011.8
1544.5 kPa	1011.8
1548.8 kPa	1011.7
1552.7 kPa	1011.8
1556.3 kPa	1011.9
1561.3 kPa	1011.9
1565.3 kPa	1011.8
1569.5 kPa	1011.8
1573.5 kPa	1011.9
1577.5 kPa	1011.9
1581.8 kPa	1011.9
1585.8 kPa	1011.8
1590.8 kPa	1011.9
1595 kPa	1011.8
1599 kPa	1011.9
1604.2 kPa	1011.9
1608.2 kPa	1011.9
1612.5 kPa	1011.9
1617.8 kPa	1012
1621.9 kPa	1011.9
1626.6 kPa	1011.9
1630.8 kPa	1011.8
1635 kPa	1011.9
1640 kPa	1012
1644.2 kPa	1012
1648.7 kPa	1011.8
1653.9 kPa	1012.1
1658.9 kPa	1011.8
1663.4 kPa	1011.9
1668.6 kPa	1011.9
1673.2 kPa	1011.8
1677.7 kPa	1011.8
1683.2 kPa	1011.9
1687.7 kPa	1012.1
1692.6 kPa	1012
1697.3 kPa	1011.9
1703 kPa	1011.9
1707.7 kPa	1012
1712 kPa	1011.9
1717.8 kPa	1011.9
1722.5 kPa	1011.9
1727.3 kPa	1012
1732.9 kPa	1011.9
1737.7 kPa	1012.1
1742.9 kPa	1012.1
1747.8 kPa	1012
1753.7 kPa	1011.9
1758.4 kPa	1012
1763.8 kPa	1012
1768.6 kPa	1012
1774.7 kPa	1011.9
1779.9 kPa	1012.1
1784.9 kPa	1012
1791 kPa	1011.9
1796 kPa	1012
1800.9 kPa	1012.1
1807.3 kPa	1012
1812.5 kPa	1012
1817.6 kPa	1012.1
1824 kPa	1011.9
1829.5 kPa	1012.1
1834.9 kPa	1012
1840.1 kPa	1012
1846.6 kPa	1012
1852.1 kPa	1012
1857.5 kPa	1012
1862.9 kPa	1012
1869.5 kPa	1012.1
1874.8 kPa	1012.1
1881.8 kPa	1012
1887 kPa	1012.1
1892.9 kPa	1012
1898.6 kPa	1012.1
1904.4 kPa	1012
1911.3 kPa	1012.1
1916.8 kPa	1012.1
1923.1 kPa	1012.1
1930 kPa	1012
1935.6 kPa	1012.1
1941.3 kPa	1011.9
1947.2 kPa	1012.1
1954.3 kPa	1012
1960.6 kPa	1012
1966.7 kPa	1012.1
1972.9 kPa	1012.1
1980.4 kPa	1012.1
1986.3 kPa	1012.1
1992.3 kPa	1012.1
1999.8 kPa	1012.1
2006.4 kPa	1012.1
2012.5 kPa	1012.1
2018.9 kPa	1012.1
2026.4 kPa	1012.1
2033.5 kPa	1012.1
2039.7 kPa	1012.1
2046.1 kPa	1012.1
2053.9 kPa	1012.3
2060.5 kPa	1012.1
2068.3 kPa	1012.2
2074.9 kPa	1012.1
2081.9 kPa	1012.2
2090 kPa	1012.3
2096.8 kPa	1012.1
2103.5 kPa	1012.2
2109.8 kPa	1012.1
2118.5 kPa	1012.2
2125.2 kPa	1012.1
2132.5 kPa	1012.3
2140.9 kPa	1012.4
2147.8 kPa	1012.2
2155.4 kPa	1012.3
2162.7 kPa	1012.2
2170 kPa	1012.3
2178.5 kPa	1012.3
2185.3 kPa	1012.3
2192.6 kPa	1012.2
2201.3 kPa	1012.3
2208.7 kPa	1012.3
2216.2 kPa	1012.1
2223.6 kPa	1012.2
2232.7 kPa	1012.2
2240.1 kPa	1012.3
2247.8 kPa	1012.4
2256.6 kPa	1012.3
2264.4 kPa	1012.4
2272.4 kPa	1012.3
2281.6 kPa	1012.4
2289.2 kPa	1012.3
2297.4 kPa	1012.3
2305.2 kPa	1012.3
2314.7 kPa	1012.3
2322.9 kPa	1012.2
2330.3 kPa	1012.3
2339.9 kPa	1012.4
2348.2 kPa	1012.5
2356.9 kPa	1012.5
2365.6 kPa	1012.3
2373.5 kPa	1012.5
2383.8 kPa	1012.3
2391.9 kPa	1012.4
2402.3 kPa	1012.4
2411 kPa	1012.3
2419.3 kPa	1012.5
2429.4 kPa	1012.4
2438.1 kPa	1012.4
2446.9 kPa	1012.4
2455.6 kPa	1012.5
2464.8 kPa	1012.4
2475.4 kPa	1012.4
2484.4 kPa	1012.5
2493.4 kPa	1012.4
2504.2 kPa	1012.4
2513.4 kPa	1012.4
2522.4 kPa	1012.5
2531.8 kPa	1012.5
2543 kPa	1012.6
2552.4 kPa	1012.5
2561.7 kPa	1012.5
2573.2 kPa	1012.4
2582.7 kPa	1012.6
2592.3 kPa	1012.5
2601.8 kPa	1012.5
2613.6 kPa	1012.6
2623.2 kPa	1012.5
2632.7 kPa	1012.5
2642.9 kPa	1012.6
2654.9 kPa	1012.6
2664.6 kPa	1012.5
2676.8 kPa	1012.5
2686.8 kPa	1012.6
2697.2 kPa	1012.6
2707.4 kPa	1012.6
2719.9 kPa	1012.6
2730.3 kPa	1012.6
2740.9 kPa	1012.6
2751.7 kPa	1012.5
2764.8 kPa	1012.6
2775.1 kPa	1012.6
2785.8 kPa	1012.7
2799.2 kPa	1012.6
2810.1 kPa	1012.7
2820.9 kPa	1012.7
2833.5 kPa	1012.7
2844.6 kPa	1012.7
2855.9 kPa	1012.6
2869.2 kPa	1012.7
2880.7 kPa	1012.7
2892.5 kPa	1012.8
2904.8 kPa	1012.8
2916.2 kPa	1012.6
2930.1 kPa	1012.7
2941.7 kPa	1012.8
2953.3 kPa	1012.8
2967.4 kPa	1012.8
2979.5 kPa	1012.7
2991.5 kPa	1012.8
3006.1 kPa	1012.7
3018.4 kPa	1012.8
3030.5 kPa	1012.7
3043.3 kPa	1012.8
3058.9 kPa	1012.8
3070.7 kPa	1012.9
3083.2 kPa	1012.8
3096 kPa	1012.8
3108.7 kPa	1012.8
3123.9 kPa	1012.9
3136.6 kPa	1012.8
3149.9 kPa	1013
3165.5 kPa	1012.9
3179.1 kPa	1013
3192.6 kPa	1012.9
3205.9 kPa	1012.9
3222.1 kPa	1012.9
3236.3 kPa	1012.9
3249.8 kPa	1012.8
3263.8 kPa	1013
3280.5 kPa	1013
3294.2 kPa	1013
3310.8 kPa	1013
3324.8 kPa	1013
3339.2 kPa	1013.1
3353.6 kPa	1013
3368.2 kPa	1013
3385.5 kPa	1013
3400.2 kPa	1013.1
3415.1 kPa	1013.1
3433 kPa	1013.1
3448.4 kPa	1012.9
3463.3 kPa	1013.1
3478.2 kPa	1013.1
3496.8 kPa	1013.2
3512 kPa	1013
3527.8 kPa	1013.1
3546.5 kPa	1013.2
3562.5 kPa	1013.1
3578.4 kPa	1013.2
3594 kPa	1013.2
3613.4 kPa	1013.2
3630 kPa	1013
3646.7 kPa	1013.2
3663.3 kPa	1013.1
3683.1 kPa	1013.2
3699.3 kPa	1013.2
3716.7 kPa	1013.2
3734 kPa	1013.3
3753.9 kPa	1013.3
3771.2 kPa	1013.3
3789.1 kPa	1013.3
3806.2 kPa	1013.3
3827.7 kPa	1013.4
3845.4 kPa	1013.4
3863.8 kPa	1013.3
3881.9 kPa	1013.3
3903.9 kPa	1013.3
3927.5 kPa	1013.3
4003.7 kPa	1013.4
4122.2 kPa	1013.5
4149.2 kPa	1013.6
4165.7 kPa	1013.5
4185.8 kPa	1013.5
4202.9 kPa	1013.6
4220.2 kPa	1013.5
4238.1 kPa	1013.5
4257.1 kPa	1013.5
4275.3 kPa	1013.5
4293.5 kPa	1013.7
4311 kPa	1013.6
4333.3 kPa	1013.7
4464.7 kPa	1013.8
4605.8 kPa	1013.8
4684.8 kPa	1013.8
4702.2 kPa	1013.9
4719.7 kPa	1014
4737.5 kPa	1013.9
4776.3 kPa	1013.9
4798.6 kPa	1013.9
4817.1 kPa	1014
4836 kPa	1013.9
4855.9 kPa	1014
4875 kPa	1013.9
4897.8 kPa	1014.2
